According to article PMC12005307, “A biofilm-targeting lipo-peptoid to treat Pseudomonas aeruginosa and Staphylococcus aureus co-infections” (Biofilm, 2025):
In brackets after ≈: the same amount, converted by molar mass. Read-outs that look alike come from different tables or passages of the source.

Assays:
P. aeruginosa LESB58 [1] = assay: MIC, broth microdilution; assay type: cell-based; settings: Pseudomonas aeruginosa
Experimental: (§1) Minimum inhibitory concentrations (MIC) were determined using an adapted broth microdilution method in Greiner bio flat chimney polypropylene 96-well plates. P. aeruginosa was used at 1 × 10^6 CFU/mL and S. aureus at 5 × 10^6 CFU/mL in MHB (Oxoid) and DFG, respectively. A separate polypropylene plate was used to prepare two-fold peptoid dilutions in PBS pH 7.5 (Gibco). Bacterial growth was determined by visible turbidity after incubation at 37 °C for 16 h (S. aureus) or 24 h (P. aeruginosa). MIC values were determined as the lowest concentration of the drug where no bacterial growth was visible. Metabolic activity (color change from blue to pink) was further determined by adding the metabolic dye PrestoBlue™ (Invitrogen) to each well for 30 min as confirmation of visual determination. All tests were performed in triplicate.

S. aureus USA300 LAC [2] = assay: MIC, broth microdilution; assay type: cell-based; settings: Staphylococcus aureus, Table S6, antibiotic screen, medium not given
Experimental: as §1

P. aeruginosa LESB58 [3] = assay: Checkerboard titration assay (in vitro synergy); assay type: cell-based, Pseudomonas aeruginosa; settings: DFG; for Fold decrease in TM18 MIC: TM18 in combination with the named antibiotic; for Fold decrease in TM18 MIC / FICI, antibiotic combination with TM18: checkerboard; for Fold decrease in antibiotic MIC: antibiotic in combination with TM18, checkerboard; for FICI, antibiotic combination with TM18: 1 × 10^6 CFU/mL, 37 °C, 16–24 h, >0.5 and <=1 additive
Experimental: (§2) Each compound was serially diluted in PBS before transferring to a 96-well plate containing 1 × 10^6 CFU/mL P. aeruginosa or S. aureus, respectively, in DFG medium and incubated at 37 °C for 16–24 h. The MIC or combinatorial effect was determined as the lowest concentration with no visible growth and the fractional inhibitory concentration index (FICI) was calculated as [(MICA in combination)/MICA] + [(MICB in combination)/MICB] as previously. FICIs ≤ 0.5 indicate synergy, 0.5–1 indicate additivity and values above 1 indicate indifference or antagonism.

S. aureus USA300 LAC [4] = assay: Checkerboard titration assay (in vitro synergy); assay type: cell-based, Staphylococcus aureus; settings: DFG; for Fold decrease in TM18 MIC: TM18 in combination with the named antibiotic; for Fold decrease in TM18 MIC / FICI, antibiotic combination with TM18: checkerboard; for Fold decrease in antibiotic MIC: antibiotic in combination with TM18, checkerboard; for FICI, antibiotic combination with TM18: 1 × 10^6 CFU/mL, 37 °C, 16–24 h, >0.5 and <=1 additive
Experimental: as §2

[5] = tested on: P. aeruginosa LESB58 and S. aureus USA300 LAC; assay: Murine skin abscess model, co-infection, abscess size; assay type: in vivo, Pseudomonas aeruginosa and Staphylococcus aureus; settings: 2.5 × 10^7 CFU of each species s.c., 5 mg/kg of each agent intra-abscess after 1 h
Experimental: (§3) The abscess model was performed as described previously for mono-species infections and modified as follows for dual-species infection. P. aeruginosa and S. aureus were grown individually to an OD600 of 1.0 in dYT broth. Bacterial cells were washed twice in PBS pH 7.4 (Gibco) and resuspended to an OD600 of 2.0 for S. aureus (∼2.5 × 10^7) and 1.0 for P. aeruginosa (∼2.5 × 10^7). For co-infections, P. aeruginosa and S. aureus were mixed (1:1) immediately before injecting 50 μL subcutaneously into the right side of the dorsum. TM1, TM14, TM18, or sterile PBS were injected directly into the infected area 1-h post-infection at a concentration of 5 mg/kg which was the highest concentration determined as non-toxic in our murine model (Table S10). The progression of the infection was monitored daily. A caliper was used to measure the abscess lesion size manually. The SilhouetteStar™ 3D wound camera and SilhouetteConnect™ software were used to photograph, measure, and analyze abscess lesion sizes (visible dermonecrosis). The skin abscesses (including accumulated pus) were excised and homogenized in sterile PBS using SPEX®SamplePrep 1600 MiniG™ for 5 min. […]
(§4) In vitro experiments were performed with at least three biological replicates. […] The predicted additive effect (PAE) was determined by calculating the sum of CFU log reduction for each individual treatment. […]

P. aeruginosa LESB58 [6] = assay: Murine skin abscess model, co-infection, P. aeruginosa survivors; assay type: in vivo, Pseudomonas aeruginosa; settings: 5 mg/kg intra-abscess after 1 h, day 3, CFU on selective agar
Experimental: as §3, §4

S. aureus USA300 LAC [7] = assay: Murine skin abscess model, co-infection, S. aureus survivors; assay type: in vivo, Staphylococcus aureus; settings: 5 mg/kg intra-abscess after 1 h, day 3, CFU on selective agar
Experimental: as §3, §4

[8] = Table S6, antibiotic screen, medium not given, read-out: MIC

Row | Structure (SMILES) | MIC (P. aeruginosa LESB58 [1]; [8]) [µg/mL] | MIC (S. aureus USA300 LAC [2]) [µg/mL] | Fold decrease in TM18 MIC (P. aeruginosa LESB58 [3]) [fold] | Fold decrease in antibiotic MIC (P. aeruginosa LESB58 [3]) [fold] | FICI, antibiotic combination with TM18 (P. aeruginosa LESB58 [3]) | Fold decrease in TM18 MIC (S. aureus USA300 LAC [4]) [fold] | Fold decrease in antibiotic MIC (S. aureus USA300 LAC [4]) [fold] | FICI, antibiotic combination with TM18 (S. aureus USA300 LAC [4]) | MIC (P. aeruginosa LESB58 [1]) [µg/mL] | reduction of abscess sizes ([5]; day 3) [%] | reduction of abscess sizes ([5]; day 3, listed as Meropenem) [%] | reduction of P. aeruginosa survivors (P. aeruginosa LESB58 [6]) [fold] | reduction of S. aureus survivors (S. aureus USA300 LAC [7]) [fold]
1 | CC[C@H]1OC(=O)[C@H](C)[C@@H](O[C@H]2C[C@@](C)(OC)[C@@H](O)[C@H](C)O2)[C@H](C)[C@@H](O[C@@H]2O[C@H](C)C[C@H](N(C)C)[C@H]2O)[C@](C)(O)C[C@@H](C)CN(C)[C@H](C)[C@@H](O)[C@]1(C)O [AZM, azithromycin] | 25 (≈ 33.4 µM) | 125 (≈ 167 µM) | 8 | 2 | 0.625 | 1 | 1 | 1 | – | – | – | – | –
2 | CC(C)(O/N=C(\C(=O)N[C@@H]1C(=O)N2C(C(=O)[O-])=C(C[n+]3ccccc3)CS[C@H]12)c1csc(N)n1)C(=O)O [CAZ, ceftazidime] | 12.5 (≈ 22.9 µM) | 31.2 (≈ 57.2 µM) | 2 | 4 | 0.75 | 1 | 1 | 1 | – | – | – | – | –
3 | O=C(O)c1cn(C2CC2)c2cc(N3CCNCC3)c(F)cc2c1=O [CIP, ciprofloxacin] | 3.13 (≈ 9.45 µM) | 15.6 (≈ 47.2 µM) | 1 | 2 | 1 | 4 | 2 | 0.75 | – | – | – | – | –
4 | CNC(C)C1CCC(N)C(OC2C(N)CC(N)C(OC3OCC(C)(O)C(NC)C3O)C2O)O1 (stereo not shown) [GEN, gentamicin] | 7.81 (≈ 16.4 µM) | 0.78 (≈ 1.63 µM) | 1 | 2 | 1 | 1 | 2 | 1 | – | – | – | – | –
5 | C[C@@H](O)[C@H]1C(=O)N2C(C(=O)O)=C(S[C@@H]3CN[C@H](C(=O)N(C)C)C3)[C@H](C)[C@H]12 [meropenem] | – | 0.78 (≈ 2.03 µM) | 2 | 2 | 1 | 2 | 4 | 0.75 | 1.56 (≈ 4.07 µM) | 78 | 85 | ~100 | ~10
6 | NC[C@H]1O[C@H](O[C@H]2[C@H](O)[C@@H](O[C@H]3O[C@H](CO)[C@@H](O)[C@H](N)[C@H]3O)[C@H](N)C[C@@H]2N)[C@H](N)C[C@@H]1O [tobramycin] | 1.56 (≈ 3.34 µM) | 0.78 (≈ 1.67 µM) | 2 | 2 | 1 | 1 | 1 | 1 | – | – | – | – | –
